Results: patent US10246429B2, “Vinyl fluoride cyclopropyl fused thiazin-2-amine compounds as beta-secretase inhibitors and methods of use” (AMGEN INC., priority 2015, dated 2019)
pIC50: −log10 of the molar value.

Key:
[1] = target: T1, BACE1 (Homo sapiens (Human), UniProt P56817); assay: BACE1 cell assay; assay type: cell-based; details: for IC50: read-out: IC50 IP (μM) BACE1 Cell
Target sequence in this assay (P56817 46-501, species assumed): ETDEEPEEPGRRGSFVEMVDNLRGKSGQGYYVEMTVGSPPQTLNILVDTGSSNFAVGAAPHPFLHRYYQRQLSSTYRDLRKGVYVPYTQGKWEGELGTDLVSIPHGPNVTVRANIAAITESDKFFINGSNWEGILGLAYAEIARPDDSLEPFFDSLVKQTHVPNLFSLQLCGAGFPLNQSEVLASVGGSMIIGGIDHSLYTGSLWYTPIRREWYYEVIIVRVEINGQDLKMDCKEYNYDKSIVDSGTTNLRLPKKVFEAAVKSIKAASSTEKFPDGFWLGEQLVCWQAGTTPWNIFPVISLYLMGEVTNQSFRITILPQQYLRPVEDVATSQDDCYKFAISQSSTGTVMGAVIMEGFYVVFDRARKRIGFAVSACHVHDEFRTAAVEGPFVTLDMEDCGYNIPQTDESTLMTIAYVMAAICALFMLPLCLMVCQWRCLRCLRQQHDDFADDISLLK

[2] = target: T1, BACE1; assay: In vitro enzymatic BACE1 FRET assay; assay type: biochemical; details: read-out: IC50 IP (μM) BACE1 Enzyme
Target sequence in this assay (P56817 46-501): as the sequence (P56817 46-501, species assumed) above
Text: (§1) In Vitro Enzymatic BACE1 and BACE2 FRET (Fluorescence Resonance Energy Transfer) Assays (Enzyme Assay Data in Table 1)

[3] = target: Cathepsin D (CatD) (Homo sapiens (Human), UniProt P07339); assay: CatD assay; assay type: biochemical; details: read-out: IC50 IP (μM) CatD
[4] = target: BACE2 (Homo sapiens (Human), UniProt Q9Y5Z0); assay: In vitro enzymatic BACE2 FRET assay; assay type: biochemical; details: read-out: IC50 IP (μM) BACE2 Enzyme
BACE2, sequence (Q9Y5Z0 63-518): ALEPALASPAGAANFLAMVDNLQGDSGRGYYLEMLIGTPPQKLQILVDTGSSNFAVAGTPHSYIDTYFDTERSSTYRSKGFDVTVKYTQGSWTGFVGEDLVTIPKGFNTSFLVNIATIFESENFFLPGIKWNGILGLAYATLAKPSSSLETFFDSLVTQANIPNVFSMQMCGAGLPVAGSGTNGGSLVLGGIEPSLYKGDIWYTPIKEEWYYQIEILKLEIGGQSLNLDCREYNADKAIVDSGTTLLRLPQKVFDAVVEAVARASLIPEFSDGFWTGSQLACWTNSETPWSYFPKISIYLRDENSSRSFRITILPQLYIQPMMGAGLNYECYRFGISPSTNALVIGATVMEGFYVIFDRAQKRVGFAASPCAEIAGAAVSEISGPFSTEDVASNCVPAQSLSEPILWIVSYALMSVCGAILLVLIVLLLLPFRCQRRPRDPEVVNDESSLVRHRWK
Text: as §1

Cathepsin D (CatD), sequence (P07339 65-412, species assumed): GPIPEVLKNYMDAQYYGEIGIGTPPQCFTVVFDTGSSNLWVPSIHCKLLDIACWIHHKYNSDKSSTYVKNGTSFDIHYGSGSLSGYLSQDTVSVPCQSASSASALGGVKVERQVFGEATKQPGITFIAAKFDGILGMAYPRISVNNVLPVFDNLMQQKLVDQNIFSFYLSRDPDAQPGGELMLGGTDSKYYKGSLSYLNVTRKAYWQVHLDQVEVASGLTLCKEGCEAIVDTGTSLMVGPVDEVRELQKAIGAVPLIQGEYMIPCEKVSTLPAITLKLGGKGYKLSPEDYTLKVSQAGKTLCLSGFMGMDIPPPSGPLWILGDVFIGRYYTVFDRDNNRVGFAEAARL

CN(C)C(=O)[C@]12C[C@H]1[C@@](C)(c1cc(/C=C(\F)c3cnc(C#N)nc3)ccc1F)N=C(N)S2 [Example 173, (1S,5S,6S)-3-amino-5-(5-((Z)-2-(2-cyanopyrimidin-5-yl)-2-fluorovinyl)-2-fluorophenyl)-N,N,5-trimethyl-2-thia-4-azabicyclo[4.1.0]hept-3-ene-1-carboxamide]
IC50 [1]: 0.924 µM | IC50 [2]: 0.15 µM | IC50 [3]: 225 µM | IC50 [4]: 0.3 µM

C[C@]1(c2cc(/C=C(\F)c3ccc(Cl)cn3)ccc2F)N=C(N)S[C@]2(CO)[C@H]1C2(F)F [Example 255, ((1S,5S,6R)-3-amino-5-(5-((Z)-2-(5-chloropyridin-2-yl)-2-fluorovinyl)-2-fluorophenyl)-7,7-difluoro-5-methyl-2-thia-4-azabicyclo[4.1.0]hept-3-en-1-yl)methanol]
pIC50 [1]: 6.30 | IC50 [2]: 0.0477 µM | IC50 [3]: 235 µM | IC50 [4]: 0.056 µM

COC[C@]12C[C@H]1[C@@](C)(c1cc(/C=C(\F)c3cnc(OCc4cc(C)on4)cn3)ccc1F)N=C(N)S2 [Example 275]
IC50 [1]: 2 µM | IC50 [2]: 0.248 µM | IC50 [3]: 144 µM | IC50 [4]: 1.2 µM

COC[C@]12C[C@H]1[C@@](C)(c1cc(/C=C(\F)c3cnc(OCC(F)(F)F)cn3)ccc1F)N=C(N)S2 [Example 267]
IC50 [1]: 0.559 µM | IC50 [2]: 0.112 µM | IC50 [3]: 209 µM | IC50 [4]: 1.73 µM

CC(=O)[C@]12C[C@H]1[C@@](C)(c1cc(/C=C(\F)c3ccc(C#N)cn3)ccc1F)N=C(N)S2 [Example 238, 6-((Z)-2-(3-((1S,5S,6S)-1-acetyl-3-amino-5-methyl-2-thia-4-azabicyclo[4.1.0]hept-3-en-5-yl)-4-fluorophenyl)-1-fluorovinyl)nicotinonitrile]
pIC50 [1]: 8.18 | IC50 [2]: 0.0121 µM | IC50 [3]: 892 µM | IC50 [4]: 0.245 µM

CC#C/C(F)=C/c1ccc(F)c([C@@]2(C)N=C(N)S[C@@]3(C(=O)N(C)C)C[C@H]32)c1 [Example 209, (1S,5S,6S)-3-amino-5-(2-fluoro-5-((Z)-2-fluoropent-1-en-3-yn-1-yl)phenyl)-N,N,5-trimethyl-2-thia-4-azabicyclo[4.1.0]hept-3-ene-1-carboxamide]
IC50 [1]: 0.324 µM | IC50 [2]: 0.094 µM | IC50 [3]: 56 µM | IC50 [4]: 0.01 µM

COC[C@H]1COCCN1C(=O)[C@]12C[C@H]1[C@@](C)(c1cc(/C=C(\F)c3ccc(C#N)cn3)ccc1F)N=C(N)S2 [Example 328, 6-((Z)-2-(3-((1S,5S,6S)-3-amino-1-((S)-3-(methoxymethyl)morpholine-4-carbonyl)-5-methyl-2-thia-4-azabicyclo[4.1.0]hept-3-en-5-yl)-4-fluorophenyl)-1-fluorovinyl)nicotinonitrile]
IC50 [1]: 0.0019 µM | IC50 [2]: 0.0023 µM | IC50 [3]: 40.3 µM | IC50 [4]: 0.085 µM

C#C[C@H](C)Oc1cnc(/C(F)=C/c2ccc(F)c([C@@]3(C)N=C(N)S[C@@]4(COC)C[C@H]43)c2)cn1 [Example 264]
IC50 [1]: 0.026 µM | IC50 [2]: 0.003 µM | IC50 [3]: 363 µM | IC50 [4]: 0.917 µM

C#Cc1cnc(/C(F)=C/c2ccc(F)c([C@@]3(C)N=C(N)S[C@@]4(C(=O)N(C)C)C[C@H]43)c2)cn1 [Example 205, (1S,5S,6S)-3-amino-5-(5-((Z)-2-(5-ethynylpyrazin-2-yl)-2-fluorovinyl)-2-fluorophenyl)-N,N,5-trimethyl-2-thia-4-azabicyclo[4.1.0]hept-3-ene-1-carboxamide]
pIC50 [1]: 6.24 | IC50 [2]: 0.002 µM | IC50 [3]: 113 µM | IC50 [4]: 0.01 µM

C[C@]1(c2cc(/C=C(\F)c3ccc(C#N)cn3)ccc2F)N=C(N)S[C@@]2(C#N)C[C@H]21 [Example 245, (1S,5S,6S)-3-amino-5-(5-((Z)-2-(5-cyanopyridin-2-yl)-2-fluorovinyl)-2-fluorophenyl)-5-methyl-2-thia-4-azabicyclo[4.1.0]hept-3-ene-1-carbonitrile]
IC50 [1]: 0.0341 µM | IC50 [2]: 0.005 µM | IC50 [3]: 400 µM | IC50 [4]: 0.057 µM

COC[C@]12C[C@H]1[C@@](CF)(c1cc(/C=C(\F)c3ccc(Cl)cn3)ccc1F)N=C(N)S2 [Example 100, (1S,5S,6S)-5-(5-((Z)-2-(5-chloropyridin-2-yl)-2-fluorovinyl)-2-fluorophenyl)-5-(fluoromethyl)-1-(methoxymethyl)-2-thia-4-azabicyclo[4.1.0]hept-3-en-3-amine]
IC50 [1]: 0.26 µM | IC50 [2]: 0.0228 µM | IC50 [3]: 933 µM | IC50 [4]: 0.0421 µM

C[C@]1(c2cc(/C=C(\F)c3ccc(C#N)cn3)ccc2F)N=C(N)S[C@]2(CO)[C@H]1C2(F)F [Example 251, 6-((Z)-2-(3-((1S,5S,6R)-3-amino-7,7-difluoro-1-(hydroxymethyl)-5-methyl-2-thia-4-azabicyclo[4.1.0]hept-3-en-5-yl)-4-fluorophenyl)-1-fluorovinyl)nicotinonitrile]
IC50 [1]: 0.062 µM | IC50 [2]: 0.012 µM | IC50 [3]: 360 µM | IC50 [4]: 0.159 µM

CC(C)[C@@H]1COCCN1C(=O)[C@]12C[C@H]1[C@@](C)(c1cc(/C=C(\F)c3ccc(C#N)cn3)ccc1F)N=C(N)S2 [Example 322, 6-((Z)-2-(3-((1S,5S,6S)-3-amino-1-((R)-3-isopropylmorpholine-4-carbonyl)-5-methyl-2-thia-4-azabicyclo[4.1.0]hept-3-en-5-yl)-4-fluorophenyl)-1-fluorovinyl)nicotinonitrile]
IC50 [1]: 0.0026 µM | IC50 [2]: 0.0021 µM | IC50 [3]: 27.8 µM | IC50 [4]: 0.03 µM

CNC(=O)[C@]12C[C@H]1[C@@](C)(c1cc(/C=C(\F)c3ccc(C#CC4CC4)cn3)ccc1F)N=C(N)S2 [Example 358, (1S,5S,6S)-3-amino-5-(5-((Z)-2-(5-(cyclopropylethynyl)pyridin-2-yl)-2-fluorovinyl)-2-fluorophenyl)-N,5-dimethyl-2-thia-4-azabicyclo[4.1.0]hept-3-ene-1-carboxamide]
IC50 [1]: 0.256 µM | IC50 [2]: 0.018 µM | IC50 [3]: 39.8 µM | IC50 [4]: 0.415 µM

C[C@]1(c2cc(/C=C(\F)c3ccc(C#N)cn3)cnc2F)N=C(N)S[C@@]2(C(=O)N3CC[C@H](F)C3)C[C@H]21 [Example 182, 6-((Z)-2-(5-((1S,5S,6S)-3-amino-1-((S)-3-fluoropyrrolidine-1-carbonyl)-5-methyl-2-thia-4-azabicyclo[4.1.0]hept-3-en-5-yl)-6-fluoropyridin-3-yl)-1-fluorovinyl)nicotinonitrile]
IC50 [1]: 0.007 µM | IC50 [2]: 0.0024 µM | IC50 [3]: 776 µM | IC50 [4]: 0.045 µM

CN(C)C(=O)[C@]12C[C@H]1[C@@](C)(c1cc(/C(F)=C/c3ccc(Cl)cn3)ccc1F)N=C(N)S2 [Example 185, (1S,5S,6S)-3-amino-5-(5-((Z)-2-(5-chloropyridin-2-yl)-1-fluorovinyl)-2-fluorophenyl)-N,N,5-trimethyl-2-thia-4-azabicyclo[4.1.0]hept-3-ene-1-carboxamide]
pIC50 [1]: 6.16 | IC50 [2]: 0.132 µM | IC50 [3]: 172 µM | IC50 [4]: 0.0764 µM

COC(=O)[C@]12C[C@H]1[C@@](C)(c1cc(/C=C(/F)c3ccc(Cl)cn3)cnc1F)N=C(N)S2 [Example 177, (1S,5S,6S)-methyl 3-amino-5-(5-((E)-2-(5-chloropyridin-2-yl)-2-fluorovinyl)-2-fluoropyridin-3-yl)-5-methyl-2-thia-4-azabicyclo[4.1.0]hept-3-ene-1-carboxylate]
IC50 [1]: 5.44 µM | IC50 [2]: 0.291 µM | IC50 [3]: 527 µM | IC50 [4]: 2.9 µM

C[C@@H]1CN=C([C@]23C[C@H]2[C@@](C)(c2cc(/C=C(\F)c4ccc(C#N)cn4)ccc2F)N=C(N)S3)O1 [Example 343, 6-((Z)-2-(3-((1S,5S,6S)-3-amino-5-methyl-1-((R)-5-methyl-4,5-dihydrooxazol-2-yl)-2-thia-4-azabicyclo[4.1.0]hept-3-en-5-yl)-4-fluorophenyl)-1-fluorovinyl)nicotinonitrile]
IC50 [1]: 0.0031 µM | IC50 [2]: 0.0826 µM | IC50 [3]: 884 µM | IC50 [4]: 0.692 µM

C#CCOc1cnc(/C(F)=C/c2cnc(F)c([C@@]3(C)N=C(N)S[C@@]4(C(=O)NCC(F)F)C[C@H]43)c2)cn1 [Example 300, (1S,5S,6S)-3-amino-N-(2,2-difluoroethyl)-5-(2-fluoro-5-((Z)-2-fluoro-2-(5-(prop-2-yn-1-yloxy)pyrazin-2-yl)vinyl)pyridin-3-yl)-5-methyl-2-thia-4-azabicyclo[4.1.0]hept-3-ene-1-carboxamide]
pIC50 [1]: 8.18 | IC50 [2]: 0.0025 µM | IC50 [3]: 20 µM | IC50 [4]: 0.411 µM

C[C@]1(c2cc(/C=C(\F)c3ccc(C#N)cn3)ccc2F)N=C(N)S[C@@]2(C(=O)N3CC4(CCOCC4)C3)C[C@H]21 [Example 320, 6-((Z)-2-(3-((1S,5S,6S)-3-amino-5-methyl-1-(7-oxa-2-azaspiro[3.5]nonane-2-carbonyl)-2-thia-4-azabicyclo[4.1.0]hept-3-en-5-yl)-4-fluorophenyl)-1-fluorovinyl)nicotinonitrile]
IC50 [1]: 0.0024 µM | IC50 [2]: 0.0052 µM | IC50 [3]: 292 µM | IC50 [4]: 0.039 µM

CC#Cc1cnc(/C(F)=C/c2ccc(F)c([C@@]3(C)N=C(N)S[C@@]4(C(=O)NC)C[C@H]43)c2)cn1 [Example 164, (1S,5S,6S)-3-amino-5-(2-fluoro-5-((Z)-2-fluoro-2-(5-(prop-1-yn-1-yl)pyrazin-2-yl)vinyl)phenyl)-N,5-dimethyl-2-thia-4-azabicyclo[4.1.0]hept-3-ene-1-carboxamide]
pIC50 [1]: 7.30 | IC50 [2]: 0.0125 µM | IC50 [3]: 156 µM | IC50 [4]: 0.229 µM

C#CCOc1cnc(/C(F)=C/c2ccc(F)c([C@@]3(C)N=C(N)S[C@@]4(C(C)=O)C[C@H]43)c2)cn1 [Example 234, 1-((1S,5S,6S)-3-amino-5-(2-fluoro-5-((Z)-2-fluoro-2-(5-(prop-2-yn-1-yloxy)pyrazin-2-yl)vinyl)phenyl)-5-methyl-2-thia-4-azabicyclo[4.1.0]hept-3-en-1-yl)ethanone]
pIC50 [1]: 7.95 | IC50 [2]: 0.0059 µM | IC50 [3]: 125 µM | IC50 [4]: 0.581 µM
